Experiment in all cases: NCI anticancer screen, dose series, 48 h
For experiment [1], the system named is NCI/ADR-RES ovarian.
Experiment [2] has as its system NCI-H460 lung.
For experiment [3], the system named is T-47D breast.
The test system of experiment [4] is UACC-257 melanoma.
Experiment [5] deals with PC-3 prostate.
In experiment [6] the test system is LOX IMVI melanoma.
Experiment [7] relates to SK-OV-3 ovarian.
In experiment [8] the test system is KM12 colon.
The subject of experiment [9] is SF-295 CNS.
The test system of experiment [10] is NCI-H522 lung.

Results on twelve molecules are retold here after PubChem BioAssay (NCI).

Molecules are shown by their SMILES. Where “and” joins values, the source holds several entries; their conditions need not be identical. Equal values may be shown once.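 Compound exposure: 48 hours, 5 concentrations, 96-well plates. GI50: concentration for 50% inhibition of growth. The concentration for full growth arrest is given as TGI.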

Take `NC(=S)N/N=C1\c2ccccc2-c2c(F)c(F)c(F)c(F)c21`: the GI50 in [1] is 5.77 µM; in [2] it was 5.65 µM; in [3] it was 1.91 µM; in experiment [4] it was 2.93 µM; in experiment [5], 10.1 µM; in experiment [6], 2.34 µM. In addition, the GI50 was 14.1 µM in [7], 5.88 µM in experiment [8], 12.4 µM in experiment [9] and 0.321 µM in experiment [10]. Besides, the TGI was 16.7 µM in experiment [1]; 24.7 µM in experiment [2]; 5.08 µM in [3]; 9.38 µM in [4]; 28.3 µM in [5]; 7.64 µM in experiment [6]. Besides, the TGI stood at 36.5 µM in experiment [7], 16.3 µM in [8], 57.7 µM in experiment [9] and 1.21 µM in experiment [10].

Turning to `Cn1c(=O)nc2n(-c3ccc(Cl)cc3)c3cc(Cl)ccc3nc-2c1=O`, the TGI in [1] is 35.6 µM; in experiment [2], 27.1 µM; in experiment [3] it was 2.03 µM; in experiment [4] it was 3.51 µM; in [5], 24.1 µM; in experiment [6], 5.84 µM. Besides, the TGI in experiment [7] was determined as 34.6 µM; in experiment [8], 25.6 µM; in experiment [9], 23.7 µM; in [10], 6.36 µM.

As for `O=C(COc1cccc(/C=C2\CSc3ccc(Cl)cc3C2=O)c1)c1ccc(Cl)cc1`, the GI50 in experiment [1] is 11.3 µM; in experiment [2], 23.1 µM; in experiment [3], 0.993 µM; in experiment [4], 13.4 µM; in experiment [5], 3.35 µM; in experiment [6] it was 1.63 µM. Further, the GI50 in [7] is 20.4 µM; in experiment [8], 1.76 µM; in [9], 4.48 µM; in [10], 1.74 µM. The TGI in experiment [1] is 31.4 µM; in [2], greater than 100 µM; in experiment [3], 18.4 µM; in experiment [4] it was 30.8 µM; in experiment [5], 11.4 µM; in [6] it was 3.02 µM. For the same molecule, the TGI in [7] amounted to 97.5 µM; in experiment [8], 4.13 µM; in experiment [9] it was 18.7 µM; in [10], 4.19 µM.

In the case of `CC(C)(C)c1cc(/C=N/NC(=O)c2ccccc2NC(=O)c2cccs2)c(O)c(C(C)(C)C)c1`, the GI50 in [1] is 0.606 µM; in experiment [2], 0.331 µM; in experiment [3] it was 1.85 µM; in [4], 6.18 µM; in [5], 2.8 µM; in experiment [6] it was 0.542 µM. In addition, the GI50 is 1.29 µM in experiment [7], 0.831 µM in [8], 0.521 µM in experiment [9] and 1.84 µM in experiment [10]. The TGI in experiment [1] is 15.9 µM; in experiment [2] it was 1.98 µM; in [3], 29.4 µM; in experiment [4], greater than 100 µM; in experiment [5], greater than 100 µM; in experiment [6], greater than 100 µM. The TGI in experiment [7] was greater than 100 µM; in experiment [8] it was greater than 100 µM; in [9], 17.9 µM; in experiment [10], 30.4 µM.

With `Cc1cnc2oc3ccc(O)cc3c2c1-c1ccccc1`, the GI50 in experiment [1] is 28.4 µM; in experiment [2], 19.7 µM; in [3], 3.63 µM; in experiment [4], greater than 100 µM; in experiment [5], 6.51 µM; in experiment [6], 21.6 µM. In addition, the GI50 was 25 µM in experiment [7], greater than 100 µM in experiment [8], 23.8 µM in experiment [9] and 44.9 µM in experiment [10]. The TGI in experiment [1], in [2], in [3], in [4], in experiment [5] and in [6] was greater than 100 µM each time. Also, the TGI was 86.9 µM in experiment [7], greater than 100 µM in [8], 93.2 µM in experiment [9] and greater than 100 µM in experiment [10].

Take `COc1cc(/C=C/c2cc(/C=C/c3ccc(O)c(OC)c3)n(C(=O)Nc3ccccc3Cl)n2)ccc1O`: the GI50 in [1] is 0.247 µM; in [2], 0.331 µM; in [3] it was 0.821 µM; in experiment [4] it was 1.02 µM; in experiment [5], 0.392 µM; in [6] it was 0.193 µM. Moreover, the GI50 was 0.401 µM in experiment [7], 0.326 µM in [8], 0.636 µM in experiment [9] and 0.112 µM in experiment [10]. Moreover, the TGI in experiment [1] was 7.91 µM; in [2] it was 1.25 µM; in experiment [3], 2.79 µM; in [4], 3.71 µM; in experiment [5], 2.22 µM; in experiment [6], 1.39 µM. The TGI came out at 2.35 µM in experiment [7], 1.5 µM in [8], 3.3 µM in [9] and 0.672 µM in [10].

Consider `Oc1ccc2c3c1OC1c4[nH]ncc4C[C@H]4[C@@H](C2)N(CC2CC2)CC[C@]314` (some centres undefined), for which the TGI in experiment [1], in experiment [2], in experiment [3], in experiment [4], in experiment [5] and in experiment [6] was greater than 100 µM throughout. Also, the TGI in [7], in experiment [8], in experiment [9] and in [10] was greater than 100 µM throughout.

As for `CCc1cnn2c(NCc3ccc[n+]([O-])c3)cc(N3CCCC[C@H]3CCO)nc12`, the GI50 in [1] was 0.162 µM and 0.146 µM; in experiment [2], < 0.01 µM and 0.00464 µM; in experiment [3], < 0.01 µM and 0.00485 µM; in experiment [4] it was < 0.0135 µM and 0.0074 µM; in experiment [5], < 0.0132 µM and 0.00762 µM; in experiment [6] it was < 0.01 µM and 0.00276 µM. The GI50 in [7] is 0.0391 µM and 0.0338 µM; in experiment [8] it was < 0.01 µM and 0.0034 µM; in experiment [9], < 0.0129 µM and 0.00732 µM; in [10] it was < 0.01 µM and 0.00219 µM. Moreover, the TGI was 2.53 µM and > 6.61 µM in [1]; greater than 44.8 µM in experiment [2]; 0.0777 µM in experiment [3]; 0.0792 µM and 0.111 µM in experiment [5]; greater than 100 µM in experiment [6]; greater than 100 µM in experiment [7]. The TGI in experiment [8] is greater than 10 µM; in [9], 0.0962 µM and 0.0602 µM; in experiment [10], < 0.01 µM and 0.00549 µM.

With `Clc1cc(Cl)c(OCCCCCCN2CCNCC2)c(Cl)c1`, the GI50 in [1] was 8.86 µM; in experiment [2], 2.03 µM; in experiment [3], 2.01 µM; in [4] it was 2.77 µM; in experiment [5], 1.8 µM; in experiment [6], 1.75 µM. In addition, the GI50 in experiment [7] is 12.9 µM; in experiment [8], 1.8 µM; in [9], 1.81 µM; in experiment [10] it was 11.1 µM. Further, the TGI in experiment [1] stood at 26.1 µM; in [2], 4.15 µM; in [3], 5.06 µM; in experiment [4], 7.4 µM; in experiment [5], 4.03 µM; in experiment [6] it was 3.26 µM. Also, the TGI in experiment [7] turned out to be 28.6 µM; in experiment [8] it was 3.6 µM; in experiment [9], 3.91 µM; in experiment [10], 25.4 µM.

Consider `Cn1cc(-c2nc(-c3c[nH]c4ncccc34)cs2)c2ccccc21`, for which the GI50 in experiment [1] was 19.9 µM; in experiment [2], 1.27 µM; in experiment [3] it was 0.414 µM; in experiment [4], 66.3 µM; in experiment [5], 16.4 µM; in experiment [6], 24.5 µM. Moreover, the GI50 was 65.3 µM in [7], 0.975 µM in [8], 26.9 µM in experiment [9] and 12.3 µM in experiment [10]. Further, the TGI is greater than 100 µM in experiment [1]; greater than 100 µM in experiment [2]; 26.9 µM in [3]; greater than 100 µM in experiment [4]; greater than 100 µM in experiment [5]; greater than 100 µM in [6]. Further, the TGI in [7] is greater than 100 µM; in [8] it was 26.7 µM; in experiment [9], greater than 100 µM; in experiment [10], greater than 100 µM.

For `COc1cc(N2C(=O)[C@H](c3ccccc3)C2c2ccc(SC)cc2)cc(OC)c1OC` (some centres undefined), the GI50 was 0.0335 µM in [1]; 0.0346 µM in [2]; greater than 100 µM in experiment [3]; 1.66 µM in experiment [4]; 0.0428 µM in experiment [5]; 0.0352 µM in [6]. For the same molecule, the GI50 in experiment [7] is 0.0676 µM; in experiment [8], 0.0352 µM; in [9], 0.0352 µM; in experiment [10] it was 0.0232 µM. For the same molecule, the TGI in experiment [1], in [2], in [3], in experiment [4], in experiment [5] and in experiment [6] was greater than 100 µM throughout. The TGI in experiment [7] is greater than 100 µM; in experiment [8], greater than 100 µM; in experiment [9], 6.94 µM; in experiment [10] it was 0.0734 µM.

For `O=C1CC(c2ccccc2)Cc2nc3ccc(Br)cc3cc21` (centres undefined), the GI50 is 0.0748 µM in experiment [1]; 0.339 µM in experiment [2]; 5.68 µM in [3]; 23.6 µM in [4]; 0.296 µM in [5]; 0.746 µM in experiment [6]. In addition, the GI50 in [7] is 0.694 µM; in [8], 0.368 µM; in experiment [9] it was 0.265 µM; in experiment [10], 0.204 µM. Also, the TGI in [1] is 9.03 µM; in experiment [2], 13.7 µM; in experiment [3], greater than 100 µM; in [4], greater than 100 µM; in experiment [5], greater than 100 µM; in experiment [6], greater than 59.8 µM. Further, the TGI in [7] was greater than 100 µM; in experiment [8], greater than 37.7 µM; in [9], 28.3 µM; in [10] it was 20.3 µM.
